# Results taken from patent US20220081415A1, “Amino Acid Derivatives for the Treatment of Inflammatory Diseases” (The Roskamp Institute, priority 2019, published 2022).
# Tested on: NF-kB activation induced by TNFα
# Assay: TNFα Luciferase assay: inhibition of NF-kB activation induced by TNFα in HEK293/NF-kB luciferase cells
# Assay type: cell-based
# Conditions: Homo sapiens, 4 h, 25 ng/ml of TNF-α for four hours, quadruplicate, read-out: IC50, concentration at which NF-kB activation was reduced by 50%
# Protocol: Determination of Inhibition of NF-kB Activation Induced by TNFα . . . In Vitro Assay
# The ability of a compound disclosed herein to inhibit NFkB activation induced by TNFα was determined using the TNFα Luciferase assay. The HEK293/NF-kB luciferase cell line was obtained by cotransfection of pNFkB-luc vector with pHyg (Panomics, CA, USA) followed by hygromycin selection. HEK293/NFkB Luciferase cells were grown in DMEM medium supplemented with 10% fetal bovine serum, 100 U/ml of penicillin, 100 ng/ml of streptomycin/Fungizone, and 100 μg/ml of hygromycin B as the selecting agent. HEK293 NFkB Luciferase cells were grown in T75 flasks (Nunc™ Cell Culture Treated EasYFlasks™) in a cell culture incubator at 37° C. and 5% CO2.
# Confluent T75 cell culture flasks (approximately 8-10 million of cells per flask) were washed with 10 ml of sterile PBS (without calcium and magnesium) under a biosafety cabinet. After aspiration of the PBS with a sterile glass pipette, the layer of cells (for each T75 flask) was covered with 1 ml of TrypLE™ Express without phenol red (Gibco) at room temperature. After one minute of incubation, HEK293 were mechanically resuspended in the TrypLE by tapping the side of the flask. The cells were then resuspended with 10 ml of pre-warmed complete culture medium and transferred to a conical tube. Cells were centrifuged for 5 minutes at 4000 rpm (1000 g) at room temperature. The cellular pellet was resuspended with 24 ml of pre-warmed cell culture media and […] of cell suspension (approximately 80,000 cells per well) was plated per well in 96-well cell culture plates (Costar #3599, Corning, N.Y., USA) using a multichannel pipette and reversed pipetting to prevent air bubble formation. After plating, the cells were maintained overnight in the cell culture incubator before being treated. For each 96 well cell culture plate, 8 wells were used as “control wells” (only culture medium added) and to 8 wells only TNFα was added. The NF-kB Luciferase reporter cell line was challenged with 25 ng/ml of TNF-α for four hours in the presence and absence (control conditions) of a dose range of the different compounds to be tested. For each compound, a dose range of concentrations was tested in quadruplicate and used to determine an IC50.
# Luciferase activity was monitored using the Luc-Screen® Extended-Glow Luciferase Reporter Gene Assay System by chemoluminescence according to the instruction of the manufacturer (Invitrogen) and a BioTek Synergy HT plate reader (BioTek Instruments, VT, USA).
row,SMILES,IC50 [µM]
1,"O=C(NC(Cc1ccccc1)C(=O)N1CC=CCC1c1cccnc1)c1cccc([N+](=O)[O-])c1 (stereo not drawn) [Compound 15, 3-nitro-N-(1-oxo-3-phenyl-1-(6-(pyridin-3-yl)-5,6-dihydropyridin-1(2H)-yl)propan-2-yl)benzamide]",4.3
2,"C[C@H](NC(=O)c1ccc([N+](=O)[O-])cc1)C(=O)N1CC=CCC1c1cccnc1 (stereo partly drawn) [Compound 13, 4-nitro-N-((2S)-1-oxo-1-(6-(pyridin-3-yl)-5,6-dihydropyridin-1(2H)-yl)propan-2-yl)benzamide]",276
3,"COc1cc(Cl)ccc1C(=O)N[C@H](Cc1ccccc1)C(=O)N1CC=CCC1c1cccnc1 (stereo partly drawn) [Compound 30, 4-chloro-2-methoxy-N-((2R)-1-oxo-3-phenyl-1-(6-(pyridin-3-yl)-5,6-dihydropyridin-1(2H)-yl)propan-2-yl)benzamide]",4.3
4,"CC(C)[C@@H](C(=O)N1CC=CC[C@@H]1c1cccnc1)N1C(=O)c2ccccc2C1=O (single isomer, unassigned) [Compound 4]",550
5,"O=C(NC(Cc1ccccc1)C(=O)N1CC=CCC1c1cccnc1)c1cccc(F)c1 (stereo not drawn) [Compound 19, 3-fluoro-N-(1-oxo-3-phenyl-1-(6-(pyridin-3-yl)-5,6-dihydropyridin-1(2H)-yl)propan-2-yl)benzamide]",5.4
6,"CCCC(=O)Nc1ccc(C(=O)N[C@@H](Cc2ccccc2)C(=O)N2CC=CCC2c2cccnc2)cc1 (stereo partly drawn) [Compound 48, 4-butyramido-N-((2S)-1-oxo-3-phenyl-1-(6-(pyridin-3-yl)-5,6-dihydropyridin-1(2H)-yl)propan-2-yl)benzamide]",0.114
7,"COc1ccc(Cl)c(C(=O)N[C@H](Cc2ccccc2)C(=O)N2CC=CCC2c2cccnc2)c1 (stereo partly drawn) [Compound 27, 2-chloro-5-methoxy-N-((2R)-1-oxo-3-phenyl-1-(6-(pyridin-3-yl)-5,6-dihydropyridin-1(2H)-yl)propan-2-yl)benzamide]",4
8,"O=C(C(Cc1ccccc1)N1C(=O)c2ccccc2C1=O)N1CC=CCC1c1cccnc1 (stereo not drawn) [Compound 7, 2-(1-oxo-3-phenyl-1-(6-(pyridin-3-yl)-5,6-dihydropyridin-1(2H)-yl)propan-2-yl)isoindoline-1,3-dione]",225
9,"COc1ccc(C(=O)N[C@@H](C)C(=O)N2CC=CCC2c2cccnc2)cc1OC (stereo partly drawn) [Compound 12, 3,4-dimethoxy-N-((2S)-1-oxo-1-(6-(pyridin-3-yl)-5,6-dihydropyridin-1(2H)-yl)propan-2-yl)benzamide]",470
